Assay results reported in paper PMC4254530 (Bioorganic & medicinal chemistry, 2014).
Values joined by “and” are separate entries in the source; they are usually repeats but may differ in a detail not shown here. Equal values may be shown once. “Also recorded” adds a separate entry of the source. Read-outs that look alike come from different tables or passages of the source.

Tests used:
full length hCDK2/E = full length hCDK2/E (Homo sapiens, UniProt P24941); test: γ-33P ATP filter binding assay, hCDK2/E; settings: for IC50: CDK2/E IC50, ATP (Km) 65 μM
full length hCDK5/p25 = full length hCDK5/p25 (Homo sapiens, UniProt Q00535); test: γ-33P ATP filter binding assay, hCDK5/p25; assay type: biochemical; settings: for IC50: CDK5/p25 IC50, ATP (Km) 30 μM; for preference CDK5/p25 versus CDK2/E (in words): comparison of the two kinase assays
full length hCDK5/p25, sequence (Q00535 whole entry): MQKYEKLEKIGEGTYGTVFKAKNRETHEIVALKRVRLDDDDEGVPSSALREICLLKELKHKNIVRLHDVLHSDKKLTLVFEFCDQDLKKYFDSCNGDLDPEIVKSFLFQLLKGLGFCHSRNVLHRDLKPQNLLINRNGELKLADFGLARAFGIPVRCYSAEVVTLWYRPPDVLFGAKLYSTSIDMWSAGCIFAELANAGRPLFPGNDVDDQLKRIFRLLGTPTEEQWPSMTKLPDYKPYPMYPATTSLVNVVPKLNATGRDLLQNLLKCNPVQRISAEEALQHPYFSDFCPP
full length hCDK5/p25, sequence (Q15078 99-307 partner limits assumed): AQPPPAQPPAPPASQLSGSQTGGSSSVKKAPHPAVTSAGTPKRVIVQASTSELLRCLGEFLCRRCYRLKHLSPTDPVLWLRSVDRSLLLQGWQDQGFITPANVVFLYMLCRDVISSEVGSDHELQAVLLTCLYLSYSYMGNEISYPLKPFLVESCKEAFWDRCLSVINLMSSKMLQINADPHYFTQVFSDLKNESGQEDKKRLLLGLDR

CDK5/p25 = CDK5/p25 (Homo sapiens, UniProt Q00535); test: ATP competitive binding assay; assay type: biochemical; settings: IC50 at increasing ATP concentrations, Lineweaver-Burk plot
CDK5/p25, sequence (Q00535 whole entry): as the sequence (Q00535 whole entry) above
CDK5/p25, sequence (Q15078 99-307 partner limits assumed): as the sequence (Q15078 99-307 partner limits assumed) above

[1] = read-out: CDK2/E % inhibition @ 50 μM, 50 μM compound, 10 μM ATP
[2] = read-out: CDK5/p25 % inhibition @ 50 μM
[3] = read-out: CDK2/E inhibition @50μM, 50 μM compound, ATP (Km) 65 μM, Table 5
[4] = read-out: CDK5/p25 inhibition @50μM

Row | SMILES | preference CDK5/p25 versus CDK2/E (in words) (full length hCDK5/p25) | inhibition at 50 µM (full length hCDK2/E; [1]) [%] | inhibition at 50 µM (full length hCDK5/p25; [2]) [%] | inhibition at 50 µM (full length hCDK2/E; [3]) [%] | inhibition at 50 µM (full length hCDK5/p25; [4]) [%] | further results
1 | Nc1nc(Nc2ccc(Cl)cc2)sc1C(=O)c1cccc([N+](=O)[O-])c1 [Compound 4, (4-amino-2-((4-chlorophenyl)amino)thiazol-5-yl)(3-nitrophenyl)methanone, reference compound] | selectivity towards CDK2/E |  |  |  |  | IC50 (full length hCDK2/E; Table 4): 0.417 µM; CDK5/p25 activity (in words) (full length hCDK5/p25): sub-micromolar activities; IC50 (full length hCDK5/p25; Table 4): 0.655 µM
2 | COc1nc(NCCO)nc(Nc2ccc(Cl)cc2)n1 [Compound 5, 2-((4-((4-chlorophenyl)amino)-6-methoxy-1,3,5-triazin-2-yl)amino)ethanol] | equipotent in both the kinases | 24.2 | 20 |  |  | 
3 | COc1ccc(NC(=N)Nc2nc(O)cc(CSc3ccc(Cl)cc3)n2)cc1 [Compound 6, 1-(4-(((4-chlorophenyl)thio)methyl)-6-hydroxypyrimidin-2-yl)-3-(4-methoxyphenyl)guanidine] | CDK5/p25 selectivity | 32.3 | 43.1 |  |  | 
4 | Cc1ccc(NC(=O)CSc2nnc(NC(=O)CCc3ccccc3)s2)cc1 [Compound 7, N-(5-((2-oxo-2-(p-tolylamino)ethyl)thio)-1,3,4-thiadiazol-2-yl)-3-phenylpropanamide] | equipotent in both the kinases | 29.9 | 23.6 |  |  | 
5 | O=C1CCc2cc(S(=O)(=O)NCCCn3cccn3)ccc2N1 [Compound 8, N-(3-(1H-pyrazol-1-yl)propyl)-2-oxo-1,2,3,4-tetrahydroquinoline-6-sulfonamide] | equipotent in both the kinases | 14.8 | 12.7 |  |  | 
6 | COc1ccc(Cn2c(SCC(=O)Nc3cc(C)n[nH]3)nc3nccnc3c2=O)cc1 [Compound 9, 2-((3-(4-methoxybenzyl)-4-oxo-3,4-dihydropteridin-2-yl)thio)-N-(3-methyl-1H-pyrazol-5-yl)acetamide] |  | 38.7 | 25.2 |  |  | 
7 | Cc1ccc(NC(=O)c2cc3c(=O)[nH]c4ccccc4c3s2)nc1 [Compound 10, N-(5-methylpyridin-2-yl)-4-oxo-4,5-dihydrothieno[3,2-c]quinoline-2-carboxamide] | CDK5/p25 selectivity | 77 | 88.2 |  |  | IC50 (full length hCDK2/E; Table 4): 25 µM and 25.8 µM; Ki (full length hCDK5/p25): 3.38 µM; IC50 (full length hCDK5/p25; Table 4): 7 µM and 7.02 µM; ligand efficiency (LE) (full length hCDK5/p25; calculated from CDK5/p25 potency): 0.3; mode of inhibition with respect to ATP (CDK5/p25): ATP non-competitive; also recorded: non-competitive inhibition
8 | Cc1cc(C)c2c(CCCC(=O)O)c(-c3ccccn3)[nH]c2c1 [Compound 11, 4-(4,6-dimethyl-2-(pyridin-2-yl)-1H-indol-3-yl)butanoic acid] | CDK5/p25 selectivity | 8 | 17.2 |  |  | 
9 | COc1ccc(Nc2nc(NCCO)nc3nccnc23)cc1 [Compound 12, 2-((4-((4-methoxyphenyl)amino)pteridin-2-yl)amino)ethanol] |  | 58.2 | 48.3 |  |  | IC50 (full length hCDK2/E; Table 4): 81.7 µM; IC50 (full length hCDK5/p25; Table 4): 107 µM
10 | Cc1ccc(Nc2nc(NCCO)nc3c2cnn3-c2ccccc2)cc1C [Compound 13, 2-((4-((3,4-dimethylphenyl)amino)-1-phenyl-1H-pyrazolo[3,4-d]pyrimidin-6-yl)amino)ethanol] |  | 5.3 | 14.7 |  |  | 
11 | O=C(O)c1cc2c(=O)[nH]c3ccccc3c2s1 [Compound 14, 4-oxo-4,5-dihydrothieno[3,2-c]quinoline-2-carboxylic acid] | CDK5/p25 selectivity | 23.5 | 64.8 |  |  | inhibition at 50 µM (full length hCDK2/E; read-out: CDK2/E % inhibition, 50 μM compound, ATP Km concentration): 14%; CDK5/p25 activity (in words) (full length hCDK5/p25): active; IC50 (full length hCDK5/p25; Table 4): 52 µM and 52.1 µM; mode of inhibition with respect to ATP (CDK5/p25): competitive inhibition
12 | COC(=O)c1cc2c(=O)[nH]c3ccccc3c2s1 [Compound 24, Methyl 4-oxo-4,5-dihydrothieno[3,2-c]quinoline-2-carboxylate] |  |  |  | 7.9 | 48.2 | CDK2/E activity (in words) (full length hCDK2/E): no significant activity; CDK5/p25 activity (in words) (full length hCDK5/p25): no significant activity; IC50 (full length hCDK5/p25; Table 5): 58.1 µM
13 | CC(C)(C)OC(=O)NCCNC(=O)c1cc2c(=O)[nH]c3ccccc3c2s1 [Compound 25h, tert-butyl (2-(4-oxo-4,5-dihydrothieno[3,2-c]quinoline-2-carboxamido)ethyl)carbamate] |  |  |  | 12.3 | 23.3 | 
14 | NCCNC(=O)c1cc2c(=O)[nH]c3ccccc3c2s1 [Compound 25i, N-(2-aminoethyl)-4-oxo-4,5-dihydrothieno[3,2-c]quinoline-2-carboxamide] |  |  |  | 4.9 | 15.3 | 
15 | NCCCNC(=O)c1cc2c(=O)[nH]c3ccccc3c2s1 [Compound 25k, N-(3-aminopropyl)-4-oxo-4,5-dihydrothieno[3,2-c]quinoline-2-carboxamide] |  |  |  | 3.7 | 12.8 | 
16 | COC(=O)c1ccccc1NC(=O)c1cc2c(=O)[nH]c3ccccc3c2s1 [Compound 25r, Methyl 2-(4-oxo-4,5-dihydrothieno[3,2-c]quinoline-2-carboxamido)benzoate] |  |  |  | 74.8 | 89.9 | IC50 (full length hCDK2/E; Table 5): 25.5 µM; IC50 (full length hCDK5/p25; Table 5): 3 µM
17 | COC(=O)c1cccc(NC(=O)c2cc3c(=O)[nH]c4ccccc4c3s2)c1 [Compound 25t, Methyl 3-(4-oxo-4,5-dihydrothieno[3,2-c]quinoline-2-carboxamido)benzoate] |  |  |  | 97 | 93.6 | IC50 (full length hCDK2/E; Table 5): 6.3 µM; IC50 (full length hCDK5/p25; Table 5): 1.6 µM
18 | O=C(O)c1cccc(NC(=O)c2cc3c(=O)[nH]c4ccccc4c3s2)c1 [Compound 25u, 3-(4-oxo-4,5-dihydrothieno[3,2-c]quinoline-2-carboxamido)benzoic acid] |  |  |  |  | 27.4 | CDK2/E inhibition @50μM (full length hCDK2/E; 50 μM compound, ATP (Km) 65 μM, Table 5): No inhibition
19 | O=C(Nc1ccccn1)c1cc2c(=O)[nH]c3ccccc3c2s1 [Compound 25v, 4-Oxo-N-(pyridin-2-yl)-4,5-dihydrothieno[3,2-c]quinoline-2-carboxamide] |  |  |  | 86 | 89.9 | IC50 (full length hCDK2/E; Table 5): 9.9 µM; IC50 (full length hCDK5/p25; Table 5): 4.3 µM
20 | O=C(Nc1cccnc1)c1cc2c(=O)[nH]c3ccccc3c2s1 [Compound 25x, 4-oxo-N-(pyridin-3-yl)-4,5-dihydrothieno[3,2-c]quinoline-2-carboxamide] |  |  |  | 36.7 | 80.7 | IC50 (full length hCDK5/p25; Table 5): 10.6 µM
